We go through 38 compounds from article PMC5681660, “Reduced hepatitis B and D viral entry using clinically applied drugs as novel inhibitors of the bile acid transporter NTCP” (Scientific Reports, 2017).

Where a name gives a salt, the structure may show the parent alone.

The experiment has as its target T1, human NTCP (Homo sapiens, UniProt Q14973).
T1 sequence (Q14973 1-349): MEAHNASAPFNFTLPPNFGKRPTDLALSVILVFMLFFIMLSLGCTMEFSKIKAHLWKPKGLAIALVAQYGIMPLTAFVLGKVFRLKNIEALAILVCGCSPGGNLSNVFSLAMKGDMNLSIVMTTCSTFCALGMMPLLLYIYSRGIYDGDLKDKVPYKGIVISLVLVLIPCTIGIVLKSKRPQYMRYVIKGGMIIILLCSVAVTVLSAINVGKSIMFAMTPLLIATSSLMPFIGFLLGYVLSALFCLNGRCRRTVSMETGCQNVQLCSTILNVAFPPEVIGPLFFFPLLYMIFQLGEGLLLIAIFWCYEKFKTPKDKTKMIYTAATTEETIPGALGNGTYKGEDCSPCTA
In words: Screening taurocholate uptake assay (96-well, [14C]taurocholate, 10 µM drug). Conditions: for B-score functional assay: screening taurocholate uptake, 10 µM drug.

Setting [1] is: combined ranking of functional and binding screening assays.
Setting [2] is: ranking over the functional and the binding screening assay.

As to `CC(=O)[C@H]1CC[C@H]2[C@@H]3C=CC4=CC(=O)CC[C@@]4(C)[C@@H]3CC[C@]12C` [Dydrogesterone], the B-score functional assay is listed as -1.016. Also, the Ranking score under setting [1] was found to be 511.223.

`CN(C)CCC(c1ccc(Br)cc1)c1ccccn1` (stereo not shown) [Brompheniramine maleate] showed a B-score functional assay of -0.661. Besides, under setting [1], the Ranking score stood at 520.776.

In turn, `CCOCCn1c(N2CCCN(C)CC2)nc2ccccc21` [Emedastine] displayed a B-score functional assay of -0.5. Moreover, under setting [1], the Ranking score was determined as 501.772.

In turn, `CN(C(=O)CN(CCO)CC(=O)N(C)C(C)(C)Cc1ccccc1)C(C)(C)Cc1ccccc1` [Oxethazaine] came in with a B-score functional assay of 0.282. Under setting [1], the Ranking score is 642.638.

`CCCOc1ccc2nc(NC(=O)OC)[nH]c2c1` [Oxibendazol] had a B-score functional assay of -0.538. This compound came in with a Ranking score under setting [2] of 199.274.

`Clc1ccc(COC(Cn2ccnc2)c2ccc(Cl)cc2Cl)cc1` (stereo not shown) [Econazole nitrate] registered a B-score functional assay of -2.794. Besides, the Ranking score under setting [2] came out at 155.949.

`C#C[C@]1(OC(C)=O)CC[C@H]2[C@@H]3CCC4=CC(=NO)CC[C@@H]4[C@H]3CC[C@@]21CC` (mixture of isomers) [Norgestimate] came in with a B-score functional assay of -2.463. Besides, under setting [2], the Ranking score is listed as 95.4987.

Compound `CCCCOc1ccc(CC(=O)NO)cc1` [Bufexamac] registered a B-score functional assay of -0.678. The Ranking score under setting [2] is 265.556.

As for `Oc1c(I)cc(Cl)c2cccnc12` [Clioquinol], the B-score functional assay was determined as 0.225. Besides, the Ranking score under setting [1] came to 627.53.

`c1ccc2c(CC3=NCCN3)cccc2c1` [Naphazoline hydrochloride] showed a B-score functional assay of -2.093. Also, under setting [2], the Ranking score is 143.903.

In turn, `O=C(O)Cc1ccccc1Nc1c(Cl)cccc1Cl` [Diclofenac sodium] had a B-score functional assay of -1.237. The Ranking score under setting [1] is reported as 464.103.

On to `COc1cc(C(=O)NCc2ccc(OCCN(C)C)cc2)cc(OC)c1OC` [Trimethobenzamide hydrochloride], for which the Ranking score under setting [1] is on record as 1250.5. Further, the B-score functional assay (B-score) came out at 2.997.

In turn, `C[C@]12CC[C@@H]3c4ccc(OC(=O)N(CCCl)CCCl)cc4CC[C@H]3[C@@H]1CC[C@@H]2O` [Estramustine] showed a B-score functional assay of -1.527. Under setting [2], this compound yielded a Ranking score of 134.744.

Compound `CC(=O)N(CC(C)C(=O)O)c1c(I)cc(I)c(N)c1I` (stereo not shown) [Iocetamic acid] yielded a B-score functional assay of -0.783. The same compound came in with a Ranking score under setting [2] of 232.635.

In turn, `CC(C)(C#N)c1cc(Cn2cncn2)cc(C(C)(C)C#N)c1` [Anastrozole] showed a B-score functional assay of 0.728. In addition, the Ranking score under setting [1] worked out at 558.153.

The compound `CSc1nc2cc(Cl)c(Oc3cccc(Cl)c3Cl)cc2[nH]1` [Triclabendazole] yielded a B-score functional assay of -0.202. For the same compound, the Ranking score under setting [1] is reported as 541.575.

Regarding (S)-(-)-Cycloserine, the B-score functional assay is -1.227. Under setting [2], this compound showed a Ranking score of 89.398.

Compound `Cc1cc(CC(=O)[O-])n(C)c1C(=O)c1ccc(Cl)cc1.[Na+]` [Zomepirac sodium salt] showed a B-score functional assay of -0.802. Besides, the Ranking score under setting [1] came to 527.712.

On to `NC(=O)OCC(O)COc1ccc(Cl)cc1` (stereo not shown) [Chlorphensin carbamate], for which the Ranking score under setting [1] worked out at 1211.24. Moreover, the B-score functional assay (B-score) amounted to 3.271.

The compound `CO[C@@]1(NC(=O)C(C(=O)O)c2ccc(O)cc2)C(=O)N2C(C(=O)O)=C(CSc3nnnn3C)CO[C@@H]21` (stereo partly shown) [Moxalactam disodium salt] had a B-score functional assay of -0.667. Further, the Ranking score under setting [1] came out at 623.639.

Compound `CC[N+](CC)(CC(=O)Nc1c(C)cccc1C)Cc1ccccc1` [Denatonium benzoate] showed a B-score functional assay of -0.069. Also, the Ranking score under setting [1] was 531.85.

For the compound `CCc1cccc2c3c([nH]c12)C(CC)(CC(=O)O)OCC3` (stereo not shown) [Etodolac], the B-score functional assay is -0.274. The Ranking score under setting [2] is listed as 112.748.

Regarding `CC(=O)OCC(=O)[C@@]12OC3(CCCC3)O[C@@H]1C[C@H]1[C@@H]3CCC4=CC(=O)C=C[C@]4(C)[C@@]3(F)[C@@H](O)C[C@@]12C` [Amcinonide], the B-score functional assay is listed as 0.343. In addition, the Ranking score under setting [1] is listed as 530.494.

Turning to `CCCCCC[C@H]1C(=O)O[C@H](C)[C@H](NC(=O)c2cccc(NC=O)c2O)C(=O)O[C@@H](C)[C@@H]1OC(=O)CC(C)C` [Antimycin A], the B-score functional assay is listed as -8.175. Under setting [2], this compound gave a Ranking score of 15.6525.

Compound `CN(C)CCOC(=O)C(c1ccccc1)C1(O)CCCC1` (stereo not shown) [Cyclopentolate hydrochloride] had a B-score functional assay of -0.521. Under setting [1], the Ranking score was determined as 624.063.

On to `C[C@]12CC[C@@H]3c4ccc(OS(=O)(=O)O)cc4CC[C@H]3[C@@H]1CCC2=O` [Estropipate], for which the B-score functional assay is -4.027. Under setting [2], this compound came in with a Ranking score of 54.037.

On to `NC(N)=NCc1cccc(I)c1.NC(N)=NCc1cccc(I)c1.O=S(=O)(O)O` [Iobenguane sulfate], for which, under setting [1], the Ranking score was determined as 1171.02. In addition, where the note is “B-score”, the B-score functional assay stood at 1.016.

In turn, `CC1(C)S[C@@H]2[C@H](NC(=O)[C@H](NC(=O)N3CCNC3=O)c3ccccc3)C(=O)N2[C@H]1C(=O)O` [Azlocillin sodium salt] displayed a B-score functional assay of -0.407. Besides, the Ranking score under setting [2] is recorded as 129.337.

In the case of `NC(=NCc1ccccc1)NC(=O)c1nc(Cl)c(N)nc1N` [Benzamil hydrochloride], the B-score functional assay is reported as -0.089. Under setting [1], the Ranking score is on record as 519.299.

As for `CCN(CC)CCOC(=O)C(Cc1cccc2ccccc12)CC1CCCO1` (stereo not shown) [Nafronyl oxalate], the B-score functional assay is -1.268. The Ranking score under setting [1] was 488.941.

Compound `CC(O)(CS(=O)(=O)c1ccc(F)cc1)C(=O)Nc1ccc(C#N)c(C(F)(F)F)c1` (stereo not shown) [Bicalutamide] registered a B-score functional assay of -0.361. This compound registered a Ranking score under setting [2] of 258.616.

The compound `O=C1c2ccccc2C(=O)C1c1ccccc1` [Phenindione] returned a B-score functional assay of 1.774. For the same compound, under setting [1], the Ranking score was 569.166.

`Cc1cccc(Nc2ccncc2S(=O)(=O)NC(=O)NC(C)C)c1` [Torsemide] yielded a B-score functional assay of -1.122. Also, the Ranking score under setting [1] was determined as 467.226.

Compound `COC(=O)C1=C(C)NC(C)=C(C(=O)OCC(C)C)C1c1ccccc1[N+](=O)[O-]` (stereo not shown) [Nisoldipine] displayed a B-score functional assay of -7.104. Under setting [2], the Ranking score is 25.6905.

The compound `Clc1cccc(Cl)c1N=C1NCCN1` [Clonidine hydrochloride] showed a B-score functional assay of 0.689. Also, the Ranking score under setting [1] is on record as 587.566.

Compound `Oc1cc(Cl)ccc1Oc1ccc(Cl)cc1Cl` [Triclosan] came in with a B-score functional assay of -1.77. Besides, the Ranking score under setting [2] came to 149.432.

`NCCc1c[nH]cn1` [Histamine dihydrochloride] yielded a B-score functional assay of 0.779. The Ranking score under setting [1] was determined as 536.125.

Consider `COc1ccc(-c2ccc3cc(C(=O)O)ccc3c2)cc1C12CC3CC(CC(C3)C1)C2` [Adapalene], for which the B-score functional assay is 0.202. Further, the Ranking score under setting [1] came out at 620.435.
